Calls of active or inactive are those of the source. The rule behind the calls is not given here.
What follows are compounds tested against MEK5 PB1 domain binding to MEKK2 (MAP3K2) mutant PB1, human (assay: inhibitors of MEK5 binding to mutant MEKK2, dose response, biochemical, bead multiplex flow cytometry (AID 1895)). Settings: Bead-based multiplex flow cytometry.
With `COc1ccc(Cn2cc3c(-c4ccc(F)cc4)nnc-3c3cc(OC)c(OC)cc32)cc1` the EC50 was > 30 µM (inactive). In the case of `C#CCOCCOCCOCCNc1nc(N2CCN(C(=O)[C@H](Cc3ccc(O)cc3)n3cc([C@@H](N)CC(C)C)nn3)CC2)nc(N2CCN(C(=O)[C@H](Cc3cc4ccccc4[nH]3)n3cc([C@@H](N)CC(C)C)nn3)CC2)n1`, the EC50 is reported as > 30 µM (inactive). Work on `CCOC(=O)c1c(CSC(=N)N)n(-c2ccc(C)cc2)c2cc(Br)c(OC(C)=O)cc12` yielded an EC50 of 10.3 µM. Work on `COc1ccc(/C=N/Nc2cc(C)nc3ccc(Br)cc23)cc1` yielded an EC50 of 8.32 µM. `COc1ccc2nc3cc(Cl)ccc3c(Nc3cc(C(C)C)c(O)cc3C)c2c1` was tested, and the EC50 was 5.37 µM. With `COc1ccccc1N(CN1C(=O)c2ccccc2C1=O)C(=O)c1cccc(C)c1` the EC50 was > 30 µM (inactive). For `CCN1CCN(Cc2ccc(NC(=O)c3cc(NC(=O)c4cncc(-c5cccs5)c4)cc(OC)c3)cc2C(F)(F)F)CC1`, the EC50 was > 30 µM (inactive). In the case of `Cc1sc(NC(=O)c2ccccc2)c(C(c2ccccn2)N2CCN(CCO)CC2)c1C` (stereo not given), the EC50 is reported as > 30 µM (inactive). Work on `CCN1CCN(Cc2ccc(NC(=O)c3cc(NC(=O)C(=O)c4c[nH]c5ccccc45)cc(OC)c3)cc2C(F)(F)F)CC1` yielded an EC50 of 0.5 µM. In the case of `CCN(Cc1ccccc1)S(=O)(=O)c1ccc(C(=O)N(CCCN(C)C)c2nc3ccc(F)cc3s2)cc1`, the EC50 is reported as 7.18 µM. For `CCn1cc(C(=O)O)c(=O)c2cc(F)c(N3CCN(C(=S)NC(=O)c4ccc(Br)cc4)CC3)cc21`, the EC50 was > 30 µM (inactive). Compound `C#CCOCCOCCOCCNc1nc(N2CCN(C(=O)[C@H](Cc3cc4ccccc4[nH]3)n3cc([C@@H](N)C(C)CC)nn3)CC2)nc(N2CCN(C(=O)[C@H](CCCCN)n3cc([C@@H](N)CC(C)C)nn3)CC2)n1` (stereo not given in full) has an EC50 of 10.3 µM. With `COc1cc2nc(N3CCN(c4cc(C)ccc4C)CC3)nc(N)c2cc1OC` the EC50 was 5.31 µM. For `CCCCCc1cc(=O)oc2c(C(CCN3CCCCC3)c3ccc4c(c3)OCO4)c(OC)cc(OC)c12` (stereo not given), the EC50 was > 30 µM (inactive). Work on `CCN1CCN(CCNC(=O)c2ccc(/C=C3/Sc4ccccc4N(Cc4cccc(C)c4)C3=O)cc2)CC1` yielded an EC50 of 10.6 µM. `CCCCCCCCCCOC(=O)Cn1c(COc2ccccc2)[n+](C)c2ccccc21` showed an EC50 of 6 µM. For `O=C(NNc1c2ccccc2nc2ccccc12)c1cc2ccccc2cc1O`, the EC50 was > 30 µM (inactive). `CCN1/C(=C/c2ccc3cc(C)cc(C)c3[n+]2CC)Sc2cc(C)ccc21` was tested, and the EC50 was 1.77 µM. For `COc1cccc(OC)c1-c1nn2c(-c3cc(-c4ccccc4)n[nH]3)nnc2s1`, the EC50 was > 30 µM (inactive). Compound `S=C(Nc1cccc(Cl)c1)N(CCCN1CCCC1)Cc1cccn1Cc1ccc(Cl)cc1` has an EC50 of 5.85 µM. With `CCN(CC)CCOc1ccc2c(c1)C(=NNC(=O)c1ccccn1)c1cc(OCCN(CC)CC)ccc1-2` the EC50 was 5.52 µM. In the case of `CNc1nc(-c2c[nH]c3ccccc23)cs1`, the EC50 is reported as > 30 µM (inactive). `Nc1ccc(N)c(C(=O)O)c1` was tested, and the EC50 was > 30 µM (inactive). `Brc1ccc(N=C/C=C/C=C/Nc2ccc(Br)cc2)cc1` was tested, and the EC50 was > 30 µM (inactive). `CN1C(=O)/C(=C\c2ccc(-c3ccccc3)o2)SC1=S` was tested, and the EC50 was > 30 µM (inactive). For `CCN1/C(=C/c2ccc3cc(C)ccc3[n+]2CC)Sc2cc(C)c(C)cc21`, the EC50 was > 30 µM (inactive). In the case of `Nc1ccc(Nc2ccccc2N)cc1`, the EC50 is reported as > 30 µM (inactive). For `COc1ccc(Cn2c(SCc3ccccc3C)nc3cc(OC)c(OC)cc3c2=N)cc1`, the EC50 was > 30 µM (inactive). With `Cc1cc2ccccc2n1CCNC(=O)c1cccs1` the EC50 was > 30 µM (inactive). For `COc1ccc(NC(=O)N(Cc2cc3cc(C)ccc3[nH]c2=O)CC2CCCO2)cc1` (stereo not given), the EC50 was > 30 µM (inactive). `CN1C(=CC=C2C=C(I)C(=O)C(I)=C2)C(C)(C)c2ccccc21` showed an EC50 of 5.14 µM. Work on `CCCCCCCCCCOC(=O)Cn1c(COc2cccc(OC)c2)[n+](C)c2ccccc21` yielded an EC50 of 21.5 µM. `Cc1nc(N)sc1-c1csc(Nc2ncccn2)n1` was tested, and the EC50 was > 30 µM (inactive). With `COc1ccc(-c2cc(C#N)nc(N3CCNCC3)n2)cc1` the EC50 was > 30 µM (inactive). In the case of `CCCCCCCCCCCCCCCC[n+]1cccc2ccccc21`, the EC50 is reported as 6.89 µM. Compound `CCCCN(CC)CCNC(=O)c1cc2c(-c3ccc(Cl)cc3)nn(C)c2s1` has an EC50 of 22.8 µM. With `C#CCOCCOCCOCCNc1nc(N2CCN(C(=O)[C@H]([C@@H](C)CC)n3cc([C@@H](N)Cc4ccc(O)cc4)nn3)CC2)nc(N2CCN(C(=O)[C@H](Cc3cc4ccccc4[nH]3)n3cc([C@@H](N)C(C)CC)nn3)CC2)n1` (stereo not given in full) the EC50 was 10.1 µM.

Same assay, conditions: Bead-based multiplex flow cytometry, measured here: Ki for PB1 binding
In the case of `CCN1C(c2ccccc2)=C(c2ccccc2)S/C1=C/C=C1\SC(=S)N(C)C1=O`, the Ki is reported as 3.16 µM. `CCN1C(c2ccccc2)=C(c2ccccc2)S/C1=C\C=C1/SC(=S)N(C)C1=O` was tested, and the Ki was 3.28 µM. For `CCC(=C/c1sc2ccc3ccccc3c2[n+]1C)/C=C1\Sc2ccc3ccccc3c2N1C`, the Ki was 0.14 µM. `CCN(CC)CCOC(=O)c1ccc(N/C=C(/C#N)c2nc(-c3cc4ccccc4oc3=O)cs2)cc1` showed a Ki of 4.8 µM. `Nc1cc2nc[nH]c2cc1N` showed a Ki of 5.77 µM. `Cc1cc2ccccc2n1CCNC(=O)c1ccc(Br)o1` gave a Ki of 2.87 µM. Work on `CCN1/C(=C/c2ccc3cc(C)cc(C)c3[n+]2CC)Sc2cc(C)ccc21` yielded a Ki of 1.73 µM. `CN1C(=CC=C2C=C(I)C(=O)C(I)=C2)C(C)(C)c2ccccc21` was tested, and the Ki was 5.04 µM.

Source: PubChem BioAssay AID1895 (NMMLSC, 2009)
